Source: ChEMBL document CHEMBL2203257 (Bioorg Med Chem Lett, 2012)

How the values were obtained:
[1] = target: Casein kinase I isoform epsilon (Homo sapiens, UniProt P49674); assay: Inhibition of CSNK1E
[2] = target: Tyrosine-protein kinase Fes/Fps (Homo sapiens, UniProt P07332); assay: Inhibition of FES
[3] = target: Serine/threonine-protein kinase PLK4 (Homo sapiens, UniProt O00444); assay: Inhibition of PLK4
[4] = target: 5'-AMP-activated protein kinase catalytic subunit alpha-1 (Homo sapiens, UniProt Q13131); assay: Inhibition of PRKAA1
5'-AMP-activated protein kinase catalytic subunit alpha-1, sequence (Q13131 whole entry): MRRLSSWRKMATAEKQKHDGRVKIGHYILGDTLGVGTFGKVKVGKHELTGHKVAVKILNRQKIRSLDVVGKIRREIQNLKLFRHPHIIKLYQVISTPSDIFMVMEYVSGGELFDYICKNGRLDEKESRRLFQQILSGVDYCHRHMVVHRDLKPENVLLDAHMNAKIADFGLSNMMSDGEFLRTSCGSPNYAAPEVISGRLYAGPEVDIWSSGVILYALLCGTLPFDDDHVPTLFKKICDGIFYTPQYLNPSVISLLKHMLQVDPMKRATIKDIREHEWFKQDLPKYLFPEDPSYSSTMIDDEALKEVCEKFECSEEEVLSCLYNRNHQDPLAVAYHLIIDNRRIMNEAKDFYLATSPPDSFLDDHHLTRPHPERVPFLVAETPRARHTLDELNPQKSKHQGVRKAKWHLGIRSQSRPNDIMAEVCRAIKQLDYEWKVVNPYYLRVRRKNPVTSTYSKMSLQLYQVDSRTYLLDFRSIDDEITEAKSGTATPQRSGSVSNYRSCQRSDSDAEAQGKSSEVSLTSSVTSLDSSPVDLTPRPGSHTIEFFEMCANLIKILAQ

[5] = target: Tyrosine-protein kinase Tec (Homo sapiens, UniProt P42680); assay: Inhibition of TEC
[6] = target: Maternal embryonic leucine zipper kinase (Homo sapiens, UniProt Q14680); assay: Inhibition of MELK
[7] = target: Tyrosine-protein kinase Yes (Homo sapiens, UniProt P07947); assay: Inhibition of YES1
[8] = target: Serine/threonine-protein kinase 4 (Homo sapiens, UniProt Q13043); assay: Inhibition of STK4
[9] = target: Hepatocyte growth factor receptor (Homo sapiens, UniProt P08581); assay: Inhibition of MET
[10] = target: Phosphoinositide 3-kinase regulatory subunit 4 (Homo sapiens, UniProt Q99570); assay: Inhibition of PIK3R4
[11] = Cmax in rat […] at 5 mg/kg, po; 1 mg/kg, iv; type: ADME, organism-based
[12] = target: Voltage-gated inwardly rectifying potassium channel KCNH2 (Homo sapiens, UniProt Q12809); assay: Inhibition of human ERG at >250 uM by patch clamp method
Voltage-gated inwardly rectifying potassium channel KCNH2, sequence (Q12809 whole entry): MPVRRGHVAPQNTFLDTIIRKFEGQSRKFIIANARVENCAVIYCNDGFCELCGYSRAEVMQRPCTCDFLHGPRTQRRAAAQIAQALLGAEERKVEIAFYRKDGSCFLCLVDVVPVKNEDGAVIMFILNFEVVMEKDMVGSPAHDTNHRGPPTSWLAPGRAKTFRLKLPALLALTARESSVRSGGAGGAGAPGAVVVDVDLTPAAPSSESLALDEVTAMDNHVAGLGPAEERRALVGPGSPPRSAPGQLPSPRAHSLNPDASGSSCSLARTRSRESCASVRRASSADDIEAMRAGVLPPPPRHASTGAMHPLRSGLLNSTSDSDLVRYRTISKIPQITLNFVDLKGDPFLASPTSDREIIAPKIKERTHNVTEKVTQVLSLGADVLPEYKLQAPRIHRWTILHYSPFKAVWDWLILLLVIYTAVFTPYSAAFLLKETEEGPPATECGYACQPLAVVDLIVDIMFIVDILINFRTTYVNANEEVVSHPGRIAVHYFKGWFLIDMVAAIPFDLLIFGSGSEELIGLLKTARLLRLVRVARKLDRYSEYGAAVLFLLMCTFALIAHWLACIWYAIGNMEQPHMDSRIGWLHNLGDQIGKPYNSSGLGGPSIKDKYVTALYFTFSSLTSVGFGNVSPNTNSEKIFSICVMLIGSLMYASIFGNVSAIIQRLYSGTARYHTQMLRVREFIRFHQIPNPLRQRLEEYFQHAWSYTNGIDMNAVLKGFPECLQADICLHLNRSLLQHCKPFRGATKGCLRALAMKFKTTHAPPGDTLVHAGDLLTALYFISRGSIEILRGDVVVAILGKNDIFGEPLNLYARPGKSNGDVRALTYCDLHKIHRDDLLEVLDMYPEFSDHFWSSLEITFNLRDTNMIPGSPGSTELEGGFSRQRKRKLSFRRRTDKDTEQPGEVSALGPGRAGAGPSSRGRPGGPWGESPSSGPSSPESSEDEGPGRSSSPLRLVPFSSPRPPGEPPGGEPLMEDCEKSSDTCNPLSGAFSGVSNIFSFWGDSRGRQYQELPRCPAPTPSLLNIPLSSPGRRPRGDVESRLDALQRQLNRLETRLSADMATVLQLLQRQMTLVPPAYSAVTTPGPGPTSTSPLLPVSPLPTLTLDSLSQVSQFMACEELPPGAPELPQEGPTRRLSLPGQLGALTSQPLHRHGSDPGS

Activin receptor type-1 = Activin receptor type-1 (Homo sapiens, UniProt Q04771); assay: Inhibition of ACVR1
[13] = Oral bioavailability in Wistar rat at 5 mg/kg; 1 mg/kg, iv; conditions: in vivo
Cytochrome P450 2D6 = Cytochrome P450 2D6 (Homo sapiens, UniProt P10635); assay: Inhibition of CYP2D6 at >20 uM; type: ADME
Cytochrome P450 2D6, sequence (P10635 whole entry): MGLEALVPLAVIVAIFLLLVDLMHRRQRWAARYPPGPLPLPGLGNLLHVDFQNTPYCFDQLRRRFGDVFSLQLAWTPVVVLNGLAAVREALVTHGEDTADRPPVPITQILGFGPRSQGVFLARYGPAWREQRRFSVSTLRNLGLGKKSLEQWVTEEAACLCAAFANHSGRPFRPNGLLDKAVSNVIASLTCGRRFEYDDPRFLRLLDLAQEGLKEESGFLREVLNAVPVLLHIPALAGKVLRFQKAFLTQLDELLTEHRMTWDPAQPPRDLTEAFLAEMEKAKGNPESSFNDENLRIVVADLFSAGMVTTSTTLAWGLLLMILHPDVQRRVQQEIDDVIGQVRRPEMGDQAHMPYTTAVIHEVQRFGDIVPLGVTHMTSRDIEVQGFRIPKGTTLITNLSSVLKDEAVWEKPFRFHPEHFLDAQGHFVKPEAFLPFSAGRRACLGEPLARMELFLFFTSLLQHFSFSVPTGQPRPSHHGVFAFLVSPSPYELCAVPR

[14] = target: Macrophage-stimulating protein receptor (Homo sapiens, UniProt Q04912); assay: Inhibition of MST1R
LIM domain kinase 2 = LIM domain kinase 2 (Homo sapiens, UniProt P53671); assay: Inhibition of LIMK2
Mus musculus = assay: Antiarthritic activity against collagen-induced arthritis mouse model assessed as mean clinical arthritis score with AUC calculation in at 3 mg/kg, po BID for 14 days; type: functional
[15] = target: Casein kinase I isoform delta (Homo sapiens, UniProt P48730); assay: Inhibition of CSNK1D
[16] = AUC in rat […] at 5 mg/kg, po; 1 mg/kg, iv; type: ADME, organism-based
[17] = target: Serine/threonine-protein kinase 3 (Homo sapiens, UniProt Q13188); assay: Inhibition of STK3
[18] = target: Phosphatidylinositol 4,5-bisphosphate 3-kinase catalytic subunit gamma isoform (Homo sapiens, UniProt P48736); assay: Inhibition of PI3Kgamma by kinobeads assay
[19] = target: Serine-protein kinase ATM (Homo sapiens, UniProt Q13315); assay: Inhibition of ATM
[20] = target: Tyrosine-protein kinase CSK (Homo sapiens, UniProt P41240); assay: Inhibition of CSK
[21] = target: Tyrosine-protein kinase Lyn (Homo sapiens, UniProt P07948); assay: Inhibition of LYN
[22] = target: Tyrosine-protein kinase JAK1 (Homo sapiens, UniProt P23458); assay: Inhibition of JAK1
[23] = target: Tyrosine-protein kinase Fyn (Homo sapiens, UniProt P06241); assay: Inhibition of FYN
[24] = target: Phosphatidylinositol 4-kinase alpha (Homo sapiens, UniProt P42356); assay: Inhibition of PIK4Ca
Phosphatidylinositol 4-kinase alpha, sequence (P42356 whole entry): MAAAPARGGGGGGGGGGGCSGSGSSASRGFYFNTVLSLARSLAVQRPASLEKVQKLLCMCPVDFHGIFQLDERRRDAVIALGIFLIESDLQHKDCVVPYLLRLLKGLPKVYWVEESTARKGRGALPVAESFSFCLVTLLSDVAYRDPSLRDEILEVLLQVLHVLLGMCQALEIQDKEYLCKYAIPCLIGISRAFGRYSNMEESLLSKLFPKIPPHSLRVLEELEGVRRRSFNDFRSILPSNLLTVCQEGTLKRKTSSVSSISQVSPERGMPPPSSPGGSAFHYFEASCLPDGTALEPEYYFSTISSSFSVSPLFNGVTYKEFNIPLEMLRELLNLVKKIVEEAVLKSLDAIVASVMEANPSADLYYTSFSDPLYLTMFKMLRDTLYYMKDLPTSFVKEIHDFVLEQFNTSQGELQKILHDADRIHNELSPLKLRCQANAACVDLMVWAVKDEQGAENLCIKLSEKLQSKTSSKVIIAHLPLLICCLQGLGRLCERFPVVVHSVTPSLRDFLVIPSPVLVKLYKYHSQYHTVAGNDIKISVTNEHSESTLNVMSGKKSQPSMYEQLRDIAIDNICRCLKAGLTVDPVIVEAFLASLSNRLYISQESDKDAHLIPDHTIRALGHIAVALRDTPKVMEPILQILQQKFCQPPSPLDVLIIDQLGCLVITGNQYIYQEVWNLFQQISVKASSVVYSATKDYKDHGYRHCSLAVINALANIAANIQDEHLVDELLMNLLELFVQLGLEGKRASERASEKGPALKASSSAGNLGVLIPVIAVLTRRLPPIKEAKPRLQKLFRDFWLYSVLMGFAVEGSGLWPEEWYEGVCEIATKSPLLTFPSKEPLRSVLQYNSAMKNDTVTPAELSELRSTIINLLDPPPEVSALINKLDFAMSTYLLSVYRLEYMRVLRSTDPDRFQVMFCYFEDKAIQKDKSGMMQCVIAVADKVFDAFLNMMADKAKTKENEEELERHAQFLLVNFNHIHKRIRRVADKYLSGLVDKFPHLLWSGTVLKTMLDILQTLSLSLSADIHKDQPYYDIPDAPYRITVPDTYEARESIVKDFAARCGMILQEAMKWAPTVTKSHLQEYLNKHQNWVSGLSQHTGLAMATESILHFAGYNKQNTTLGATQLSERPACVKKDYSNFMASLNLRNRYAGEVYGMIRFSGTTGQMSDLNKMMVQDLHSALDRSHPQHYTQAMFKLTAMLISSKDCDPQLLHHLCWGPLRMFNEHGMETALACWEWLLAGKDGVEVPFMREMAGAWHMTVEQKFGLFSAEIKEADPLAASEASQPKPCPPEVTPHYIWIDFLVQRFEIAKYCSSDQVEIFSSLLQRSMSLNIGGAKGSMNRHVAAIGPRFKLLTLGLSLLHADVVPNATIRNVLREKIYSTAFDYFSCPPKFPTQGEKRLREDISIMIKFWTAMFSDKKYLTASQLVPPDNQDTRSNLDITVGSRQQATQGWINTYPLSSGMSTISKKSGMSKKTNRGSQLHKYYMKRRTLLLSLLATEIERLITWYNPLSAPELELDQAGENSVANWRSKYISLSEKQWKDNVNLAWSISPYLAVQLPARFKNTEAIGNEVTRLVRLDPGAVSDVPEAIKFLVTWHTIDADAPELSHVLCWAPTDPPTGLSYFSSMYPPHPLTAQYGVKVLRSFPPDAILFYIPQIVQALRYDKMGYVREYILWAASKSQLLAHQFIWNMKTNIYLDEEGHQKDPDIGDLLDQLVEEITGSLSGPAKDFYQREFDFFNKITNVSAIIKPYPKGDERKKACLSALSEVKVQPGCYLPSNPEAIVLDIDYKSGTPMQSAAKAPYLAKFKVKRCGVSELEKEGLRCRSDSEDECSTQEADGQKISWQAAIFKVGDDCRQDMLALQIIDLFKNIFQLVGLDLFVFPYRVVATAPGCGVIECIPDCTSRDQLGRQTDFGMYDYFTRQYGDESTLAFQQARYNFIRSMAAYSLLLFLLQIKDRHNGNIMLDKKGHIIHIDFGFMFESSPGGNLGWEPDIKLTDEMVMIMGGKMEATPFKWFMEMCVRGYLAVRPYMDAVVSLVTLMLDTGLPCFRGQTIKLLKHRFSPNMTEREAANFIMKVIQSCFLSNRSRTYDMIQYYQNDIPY

[25] = target: Casein kinase II subunit alpha' (Homo sapiens, UniProt P19784); assay: Inhibition of CK2a2
Casein kinase II subunit alpha', sequence (P19784 whole entry): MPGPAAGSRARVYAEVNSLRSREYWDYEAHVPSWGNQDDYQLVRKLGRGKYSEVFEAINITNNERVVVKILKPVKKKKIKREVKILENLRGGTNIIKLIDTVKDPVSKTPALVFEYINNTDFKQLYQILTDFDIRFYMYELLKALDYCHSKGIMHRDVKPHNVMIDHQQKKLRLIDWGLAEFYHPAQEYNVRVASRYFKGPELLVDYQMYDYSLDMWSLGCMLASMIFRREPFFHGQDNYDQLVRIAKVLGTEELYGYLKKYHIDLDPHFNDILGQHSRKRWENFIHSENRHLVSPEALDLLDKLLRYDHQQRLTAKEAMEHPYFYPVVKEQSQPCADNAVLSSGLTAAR

[26] = target: Dual specificity mitogen-activated protein kinase kinase 1 (Homo sapiens, UniProt Q02750); assay: Inhibition of MAP2K1
Dual specificity mitogen-activated protein kinase kinase 1, sequence (Q02750 whole entry): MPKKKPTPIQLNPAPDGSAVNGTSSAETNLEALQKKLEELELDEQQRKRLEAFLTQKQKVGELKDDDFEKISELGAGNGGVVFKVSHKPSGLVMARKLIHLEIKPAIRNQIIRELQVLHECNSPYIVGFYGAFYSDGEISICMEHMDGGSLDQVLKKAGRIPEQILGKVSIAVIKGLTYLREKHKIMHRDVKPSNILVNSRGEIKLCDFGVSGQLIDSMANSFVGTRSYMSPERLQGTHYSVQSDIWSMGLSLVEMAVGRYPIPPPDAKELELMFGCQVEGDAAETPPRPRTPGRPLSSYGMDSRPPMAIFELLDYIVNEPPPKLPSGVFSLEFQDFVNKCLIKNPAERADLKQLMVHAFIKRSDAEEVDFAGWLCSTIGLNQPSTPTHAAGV

[27] = target: Dual specificity mitogen-activated protein kinase kinase 5 (Homo sapiens, UniProt Q13163); assay: Inhibition of MAP2K5
Wee1-like protein kinase = Wee1-like protein kinase (Homo sapiens, UniProt P30291); assay: Inhibition of WEE1
[28] = target: Serine/threonine-protein kinase A-Raf (Homo sapiens, UniProt P10398); assay: Inhibition of ARAF

IC50 [1]: > 10 µM
IC50 [2]: > 10 µM
IC50 [3]: > 10 µM
IC50 [4]: > 10 µM
IC50 [5]: > 10 µM
IC50 [6]: > 10 µM
IC50 [7]: > 10 µM
IC50 [8]: > 10 µM
IC50 [9]: > 10 µM
IC50 [10]: > 10 µM
Cmax [11]: 5.9 µM
IC50 (Activin receptor type-1): > 10 µM
bioavailability [13]: 81%
inhibition (INH) (Cytochrome P450 2D6): Active
IC50 [14]: > 10 µM
IC50 (LIM domain kinase 2): > 10 µM
IC50 [15]: > 10 µM
AUC [16]: 15.3 µM·h
IC50 [17]: > 10 µM
IC50 [18]: 0.0126 µM
IC50 [19]: > 10 µM
IC50 [20]: > 10 µM
IC50 [21]: > 10 µM
IC50 [22]: 4.37 µM
IC50 [23]: > 10 µM
IC50 [24]: > 5.89 µM
IC50 [25]: > 10 µM
IC50 [26]: > 10 µM
IC50 [27]: > 10 µM
IC50 (Wee1-like protein kinase): > 10 µM
IC50 [28]: > 10 µM
SMILES: CC(C)(C)NS(=O)(=O)c1cncc(-c2ccn3nc(N)nc3c2)c1
inhibition (INH) [12]: Not Active
Activity (Mus musculus): 30%
